For eight compounds, mutagenic call results are on record in PubChem BioAssay AID1259407 (Chemical Carcinogenesis Research Information System (CCRIS), 2018).

The test system of this series is CCRIS mutagenicity, Ames/micronucleus/aberration tests. Briefly: CCRIS mutagenicity studies.
Where [1] appears, read: Test System: AMES SALMONELLA TYPHIMURIUM, Strain/Indicator: TA100, Metabolic Activation: NONE, Method: STANDARD PLATE.
[2] abbreviates: Test System: AMES SALMONELLA TYPHIMURIUM, Strain/Indicator: TA98, Metabolic Activation: NONE, Method: PREINCUBATION
Setting [3] is: Test System: AMES SALMONELLA TYPHIMURIUM, Strain/Indicator: TA100, Metabolic Activation: NONE, Method: PREINCUBATION
[4] abbreviates: Test System: AMES SALMONELLA TYPHIMURIUM, Strain/Indicator: TA1535, Metabolic Activation: NONE, Method: PREINCUBATION
[5] abbreviates: Test System: AMES SALMONELLA TYPHIMURIUM, Strain/Indicator: TA1537, Metabolic Activation: NONE, Method: PREINCUBATION

SMILES strings stand for the structures. Activity calls are given as the source filed them. How the calls were made is not given here.

In the case of `CCC[CH2][Sn]([Cl])([Cl])[Cl]`, the mutagenic call (Test System: AMES SALMONELLA TYPHIMURIUM, Strain/Indicator: TA98, Metabolic Activation: NONE, Method: SUSPENSION/PLATE) is “inactive; negative” and the mutagenic call (Test System: AMES SALMONELLA TYPHIMURIUM, Strain/Indicator: TA100, Metabolic Activation: NONE, Method: SUSPENSION/PLATE) was “inactive; negative”.

Turning to `Nc1ccc2ccc3cccc4ccc1c2c34`, the mutagenic call by setting is: (End Point: IN VITRO CHROMOSOMAL ABERRATIONS, Test System: CHINESE HAMSTER LUNG (CHL) CELLS, Metabolic Activation: NONE) “inactive; negative”; (Test System: AMES SALMONELLA TYPHIMURIUM, Strain/Indicator: TA98(1,8-DNP6), Metabolic Activation: NONE, Method: STANDARD PLATE) “active; positive”; (Test System: AMES SALMONELLA TYPHIMURIUM, Strain/Indicator: TA98(1,8-DNP6), Metabolic Activation: RAT, LIVER, S-9, AROCLOR 1254, Method: STANDARD PLATE) “active; positive”; (Test System: AMES SALMONELLA TYPHIMURIUM, Strain/Indicator: TA98(NR), Metabolic Activation: NONE, Method: STANDARD PLATE) “active; positive”; (Test System: AMES SALMONELLA TYPHIMURIUM, Strain/Indicator: TA98(NR), Metabolic Activation: RAT, LIVER, S-9, AROCLOR 1254, Method: STANDARD PLATE) “active; positive”; (Test System: AMES SALMONELLA TYPHIMURIUM, Strain/Indicator: TA98, Metabolic Activation: NONE, Method: STANDARD PLATE) “active; positive”. For the same compound, the mutagenic call is, setting by setting: (Test System: AMES SALMONELLA TYPHIMURIUM, Strain/Indicator: TA98, Metabolic Activation: RAT, LIVER, S-9, AROCLOR 1254 (2 OR 4%), Method: STANDARD PLATE) “active; positive”; under setting [1], “inactive; negative”; (Test System: AMES SALMONELLA TYPHIMURIUM, Strain/Indicator: TA100, Metabolic Activation: RAT, LIVER, S-9, AROCLOR 1254 (4%), Method: STANDARD PLATE) “inactive; negative”; (Test System: AMES SALMONELLA TYPHIMURIUM, Strain/Indicator: TA100, Metabolic Activation: RAT, LIVER, S-9, AROCLOR 1254, Method: STANDARD PLATE) “active; positive”; (Test System: AMES SALMONELLA TYPHIMURIUM, Strain/Indicator: TA1535, Metabolic Activation: RAT, LIVER, S-9, AROCLOR 1254 (4%), Method: STANDARD PLATE) “inactive; negative”; (Test System: AMES SALMONELLA TYPHIMURIUM, Strain/Indicator: TA1537, Metabolic Activation: RAT, LIVER, S-9, AROCLOR 1254 (4%), Method: STANDARD PLATE) “inactive; negative”. Besides, the mutagenic call runs as follows: (Test System: AMES SALMONELLA TYPHIMURIUM, Strain/Indicator: TA1537, Metabolic Activation: RAT, LIVER, S-9, AROCLOR 1254, Method: STANDARD PLATE) “active; positive”; (Test System: AMES SALMONELLA TYPHIMURIUM, Strain/Indicator: TA1538, Metabolic Activation: NONE, Method: STANDARD PLATE) “inactive; negative”; (Test System: AMES SALMONELLA TYPHIMURIUM, Strain/Indicator: TA1538, Metabolic Activation: RAT, LIVER, S-9, AROCLOR 1254, Method: STANDARD PLATE) “active; positive”.

As for `CC(Br)C(=O)O` (centres undefined), the mutagenic call was “active; positive (structural changes)” (End Point: IN VITRO CHROMOSOMAL ABERRATIONS, Test System: CHL CELLS, Metabolic Activation: RAT, LIVER, S-9, SODIUM PHENOBARBITAL AND 5,6-BENZOFLAVONE); “inactive; negative” under setting [2]; “inactive; negative” (Test System: AMES SALMONELLA TYPHIMURIUM, Strain/Indicator: TA98, Metabolic Activation: RAT LIVER S-9, PHENOBARBITAL AND BETA-NAPHTHOFLAVONE, Method: PREINCUBATION); “inactive; negative” under setting [3]; “inactive; negative” (Test System: AMES SALMONELLA TYPHIMURIUM, Strain/Indicator: TA100, Metabolic Activation: RAT LIVER S-9, PHENOBARBITAL AND BETA-NAPHTHOFLAVONE, Method: PREINCUBATION); “inactive; negative” under setting [4]. In addition, the mutagenic call was “active; positive” (Test System: AMES SALMONELLA TYPHIMURIUM, Strain/Indicator: TA1535, Metabolic Activation: RAT LIVER S-9, PHENOBARBITAL AND BETA-NAPHTHOFLAVONE, Method: PREINCUBATION); “inactive; negative” under setting [5]; “inactive; negative” (Test System: AMES SALMONELLA TYPHIMURIUM, Strain/Indicator: TA1537, Metabolic Activation: RAT LIVER S-9, PHENOBARBITAL AND BETA-NAPHTHOFLAVONE, Method: PREINCUBATION); “inactive; negative” (Test System: AMES SALMONELLA TYPHIMURIUM, Strain/Indicator: TA1538, Metabolic Activation: NONE, Method: PREINCUBATION); “inactive; negative” (Test System: AMES SALMONELLA TYPHIMURIUM, Strain/Indicator: TA1538, Metabolic Activation: RAT LIVER S-9, PHENOBARBITAL AND BETA-NAPHTHOFLAVONE, Method: PREINCUBATION); “inactive; negative” (Test System: E.COLI, Strain/Indicator: WP2UVRA, Metabolic Activation: NONE, Method: PREINCUBATION). Moreover, for the setting “Test System: E.COLI, Strain/Indicator: WP2UVRA, Metabolic Activation: RAT LIVER S-9, PHENOBARBITAL AND BETA-NAPHTHOFLAVONE, Method: PREINCUBATION”, the mutagenic call is “inactive; negative”.

As to `C=CC(=O)OCC(Br)CBr` (centres undefined), the mutagenic call by setting is: (Test System: AMES SALMONELLA TYPHIMURIUM, Strain/Indicator: TA98, Metabolic Activation: HAMSTER, LIVER, S-9, AROCLOR 1254 (10%), Method: PREINCUBATION) “active; positive”; under setting [2], “inactive; negative”; (Test System: AMES SALMONELLA TYPHIMURIUM, Strain/Indicator: TA98, Metabolic Activation: RAT, LIVER, S-9, AROCLOR 1254 (10%), Method: PREINCUBATION) “inactive; negative”; (Test System: AMES SALMONELLA TYPHIMURIUM, Strain/Indicator: TA100, Metabolic Activation: HAMSTER, LIVER, S-9, AROCLOR 1254 (10%), Method: PREINCUBATION) “active; positive”; under setting [3], “inactive; negative”; (Test System: AMES SALMONELLA TYPHIMURIUM, Strain/Indicator: TA100, Metabolic Activation: RAT, LIVER, S-9, AROCLOR 1254 (10%), Method: PREINCUBATION) “active; positive”. In addition, the mutagenic call (Test System: AMES SALMONELLA TYPHIMURIUM, Strain/Indicator: TA1535, Metabolic Activation: HAMSTER, LIVER, S-9, AROCLOR 1254 (10%), Method: PREINCUBATION) was “active; positive”; the mutagenic call under setting [4] was “active; positive”; the mutagenic call (Test System: AMES SALMONELLA TYPHIMURIUM, Strain/Indicator: TA1535, Metabolic Activation: RAT, LIVER, S-9, AROCLOR 1254 (10%), Method: PREINCUBATION) is “active; positive”; the mutagenic call (Test System: AMES SALMONELLA TYPHIMURIUM, Strain/Indicator: TA1537, Metabolic Activation: HAMSTER, LIVER, S-9, AROCLOR 1254 (10%), Method: PREINCUBATION) was “inactive; negative”; the mutagenic call under setting [5] is “inactive; negative”; the mutagenic call (Test System: AMES SALMONELLA TYPHIMURIUM, Strain/Indicator: TA1537, Metabolic Activation: RAT, LIVER, S-9, AROCLOR 1254 (10%), Method: PREINCUBATION) is “inactive; negative”.

For `O=C(Nc1snc2ccccc12)c1ccccc1`, the mutagenic call under setting [1] is “inactive; negative”; the mutagenic call (Test System: AMES SALMONELLA TYPHIMURIUM, Strain/Indicator: TA100, Metabolic Activation: S-9, Method: STANDARD PLATE) is “active; positive”; the mutagenic call (Test System: AMES SALMONELLA TYPHIMURIUM, Strain/Indicator: TA1537, Metabolic Activation: NONE, Method: STANDARD PLATE) was “inactive; negative”; the mutagenic call (Test System: AMES SALMONELLA TYPHIMURIUM, Strain/Indicator: TA1537, Metabolic Activation: S-9, Method: STANDARD PLATE) is “inactive; negative”.

As for `COc1cc2ccnc3c2c(c1OC)-c1ccccc1C3=O`, under “Test System: AMES SALMONELLA TYPHIMURIUM, Strain/Indicator: TA100, Metabolic Activation: RAT, LIVER, S-9, PHENOBARBITAL AND BETA-NAPHTHOFLAVONE, Method: PREINCUBATION”, the mutagenic call is “active; positive”.

As for `C=C1C[C@@]23CC[C@H]4[C@@](C)(CCC[C@@]4(C)C(=O)O)[C@@H]2CC[C@]1(O[C@@H]1O[C@H](CO)[C@@H](O)[C@H](O[C@@H]2O[C@H](CO)[C@@H](O)[C@H](O)[C@H]2O)[C@H]1O[C@@H]1O[C@H](CO)[C@@H](O)[C@H](O)[C@H]1O)C3`, the mutagenic call (Test System: AMES SALMONELLA TYPHIMURIUM, Strain/Indicator: TM677, Metabolic Activation: RAT, LIVER, S-9, AROCLOR 1254, Method: PREINCUBATION) was “inactive; negative”.

On to `CCCCCCCCCCCCCC(=O)ON(C(C)=O)c1ccc2c(c1)Cc1ccccc1-2`, for which the mutagenic call (Test System: UDS HUMAN FIBROBLASTS, Strain/Indicator: THY INCORP (NON-S-PHASE), Metabolic Activation: NONE, Method: AUTORADIOGRAPHY) is “active; positive”.
